The values below come from ChEMBL document CHEMBL1153076, “Effect of flavonoids on androgen and glucocorticoid receptors based on in vitro reporter gene assay” (Bioorg Med Chem Lett, 2009).

Active and inactive are the calls of the source.

The target of assay [1] is T1, Androgen receptor (Homo sapiens) (UniProt P10275).
T1 sequence (whole entry): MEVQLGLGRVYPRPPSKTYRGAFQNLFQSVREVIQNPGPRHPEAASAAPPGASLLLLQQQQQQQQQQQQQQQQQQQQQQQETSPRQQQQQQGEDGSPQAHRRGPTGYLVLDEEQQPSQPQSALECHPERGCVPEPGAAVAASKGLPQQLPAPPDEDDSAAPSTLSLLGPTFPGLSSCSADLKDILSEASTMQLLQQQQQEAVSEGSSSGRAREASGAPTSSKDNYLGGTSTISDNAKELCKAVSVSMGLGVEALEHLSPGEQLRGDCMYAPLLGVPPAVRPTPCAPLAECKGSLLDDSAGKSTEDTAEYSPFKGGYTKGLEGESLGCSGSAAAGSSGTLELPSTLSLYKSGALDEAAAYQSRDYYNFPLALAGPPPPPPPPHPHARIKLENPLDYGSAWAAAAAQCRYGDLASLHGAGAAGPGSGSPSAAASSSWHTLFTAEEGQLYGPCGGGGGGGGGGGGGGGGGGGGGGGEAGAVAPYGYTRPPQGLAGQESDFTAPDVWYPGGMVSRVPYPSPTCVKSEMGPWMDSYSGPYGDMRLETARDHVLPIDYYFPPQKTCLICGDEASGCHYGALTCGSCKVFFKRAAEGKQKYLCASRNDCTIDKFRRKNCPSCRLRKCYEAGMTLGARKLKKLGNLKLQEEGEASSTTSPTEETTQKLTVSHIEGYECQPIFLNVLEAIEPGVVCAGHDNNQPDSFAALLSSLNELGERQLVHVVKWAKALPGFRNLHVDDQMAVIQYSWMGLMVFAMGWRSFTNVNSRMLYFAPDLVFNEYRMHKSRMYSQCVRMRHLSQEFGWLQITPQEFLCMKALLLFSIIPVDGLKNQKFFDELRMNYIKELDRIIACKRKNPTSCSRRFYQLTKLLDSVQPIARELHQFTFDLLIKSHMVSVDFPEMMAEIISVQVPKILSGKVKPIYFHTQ
Description: Ratio of compound EC150 to DHT EC150 for androgen receptor in human MDA-kb2 cells. The assay is classed as cell-based.

In assay [2] the target is T2, Glucocorticoid receptor (Homo sapiens) (UniProt P04150).
T2 sequence (whole entry): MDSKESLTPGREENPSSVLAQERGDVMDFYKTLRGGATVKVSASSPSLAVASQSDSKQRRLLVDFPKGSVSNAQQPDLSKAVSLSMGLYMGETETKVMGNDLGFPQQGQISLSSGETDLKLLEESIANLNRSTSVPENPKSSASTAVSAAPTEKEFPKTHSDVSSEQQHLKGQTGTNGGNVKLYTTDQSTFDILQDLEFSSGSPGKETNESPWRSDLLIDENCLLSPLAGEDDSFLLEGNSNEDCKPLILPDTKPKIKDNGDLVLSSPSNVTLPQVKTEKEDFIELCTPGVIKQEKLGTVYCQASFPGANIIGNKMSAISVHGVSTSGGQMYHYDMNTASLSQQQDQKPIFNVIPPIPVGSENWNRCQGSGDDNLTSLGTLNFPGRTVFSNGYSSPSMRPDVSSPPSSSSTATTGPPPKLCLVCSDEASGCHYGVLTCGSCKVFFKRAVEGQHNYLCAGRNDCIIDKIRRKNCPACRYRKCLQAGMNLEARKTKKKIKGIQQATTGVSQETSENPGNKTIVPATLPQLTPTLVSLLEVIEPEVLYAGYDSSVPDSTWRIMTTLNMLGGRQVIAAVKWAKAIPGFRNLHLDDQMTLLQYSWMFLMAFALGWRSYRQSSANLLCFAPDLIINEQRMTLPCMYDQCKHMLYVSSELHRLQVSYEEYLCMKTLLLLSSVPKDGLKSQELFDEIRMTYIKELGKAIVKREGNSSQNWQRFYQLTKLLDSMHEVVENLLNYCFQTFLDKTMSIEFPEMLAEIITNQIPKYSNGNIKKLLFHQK
Kind of assay: Ratio of compound EC150 to Dex EC150 for glucocorticoid receptor in human MDA-kb2 cells. The assay is classed as cell-based.

Assay [3] deals with T1, Androgen receptor (Homo sapiens). The note with it: MDA-kb2.
Description: Agonist activity at androgen receptor in human MDA-kb2 cells assessed as stimulation of luciferase activity by luciferase reporter gene assay
For assay [4], the target named is T2, Glucocorticoid receptor (Homo sapiens). Kind of assay: Ratio of compound EC150 to DHT EC150 glucocorticoid receptor in human MDA-kb2 cells. The assay is classed as cell-based.
Assay [5] has the same target. The settings on record: MDA-kb2.
Assay [6] addresses T1, Androgen receptor (Homo sapiens). Kind of assay: Ratio of compound EC150 to Dex EC150 for androgen receptor in human MDA-kb2 cells. The assay is classed as cell-based.
In assay [7] the target is T3, Androgen receptor (Homo sapiens, UniProt P10275).
T3 sequence (P10275 whole entry): T1 sequence (whole entry)
Description: Antagonist activity at androgen receptor in human MDA-kb2 cells assessed as inhibition of DHT-induced luciferase activity by luciferase reporter gene assay.

For assay [8], the target named is T2, Glucocorticoid receptor (Homo sapiens). Kind of assay: Agonist activity at glucocorticoid receptor in human MDA-kb2 cells assessed as stimulation of luciferase activity by luciferase reporter gene assay in presence of androgen receptor agonist DHT. The assay is classed as functional, cell-based.
Assay [9] deals with T3, Androgen receptor. Description: Antagonist activity at androgen receptor in human MDA-kb2 cells assessed as inhibition of DHT-induced luciferase activity at 100 uM by luciferase reporter gene assay. It counts as functional, cell-based.
In assay [10] the target is T1, Androgen receptor (Homo sapiens). The settings on record: MDA-kb2. The source holds these as a separate data set.
Description: Agonist activity at androgen receptor in human MDA-kb2 cells assessed as stimulation of luciferase activity at 100 uM by luciferase reporter gene assay
For assay [11], the target named is T2, Glucocorticoid receptor (Homo sapiens). The note with it: MDA-kb2. The source holds these as a separate data set.
Description: Agonist activity at glucocorticoid receptor in human MDA-kb2 cells assessed as stimulation of luciferase activity at 100 uM by luciferase reporter gene assay
For assay [12] the target is unchanged. Kind of assay: Agonist activity at glucocorticoid receptor in human MDA-kb2 cells assessed as stimulation of luciferase activity by luciferase reporter gene assay in presence of glucocorticoid receptor agonist Dex. It counts as functional, cell-based.
The target is the same in assay [13]. Kind of assay: Agonist activity at glucocorticoid receptor in human MDA-kb2 cells assessed as stimulation of luciferase activity at 0.03 mM by luciferase reporter gene assay in presence of androgen receptor agonist DHT. It counts as functional, cell-based.

As for `O=c1c(-c2ccc(O)cc2)coc2cc(O)cc(O)c12` [GENISTEIN], the Ratio in assay [1] stood at 10000; in assay [2], 23; in assay [4], 10000; in assay [6], 23. The EC150 in [3] and in assay [5] was 4.4 µM in each case. Moreover, the IC50 at Androgen receptor [7] was 1300 µM.
As to `COc1ccc2oc(-c3ccccc3)cc(=O)c2c1`, the Ratio was 1400 in assay [1], 3.6 in assay [2], 1400 in [4] and 3.6 in [6]. The EC150 in assay [3] and in assay [5] was 0.7 µM each time.
For `O=c1cc(-c2ccccc2)oc2cc(O)cc(O)c12` [CHRYSIN], the outcome in assay [8] was Active. The EC150 in assay [3] and in assay [5] was 1.5 µM in each case. The “AR antagonist activity at 100 uM (active/inactive)” value on Androgen receptor [9] is “Active”.
In assay [5], `C[C@]12CCC(=O)C[C@@H]1CC[C@@H]1[C@@H]2CC[C@]2(C)[C@@H](O)CC[C@@H]12` yielded an EC150 of 0.0005 µM.
In the case of `O=C1C[C@@H](c2ccc(O)cc2)Oc2cc(O)cc(O)c21`, the EC150 result in assay [10] and in assay [11] was “inactive” each time.
Turning to `COc1cccc2oc(-c3ccccc3)cc(=O)c12`, the EC150 in assay [3] and in assay [5] was 5.5 µM throughout. In addition, the IC50 at Androgen receptor [7] turned out to be 8.7 µM.
Turning to `O=c1c(O)c(-c2ccc(O)c(O)c2)oc2cc(O)ccc12`, the EC150 result in assay [10] and in [11] was “inactive” in each case.
For `O=c1cc(-c2ccc(O)c(O)c2)oc2cc(O)cc(O)c12`, the EC150 in assay [3] and in [5] was 18 µM each time.
As to `O=c1cc(-c2ccccc2)oc2cccc(O)c12`, the EC150 in assay [3] and in [5] was 6 µM throughout.
For `COc1ccc2c(=O)cc(-c3ccccc3)oc2c1`, the EC150 in [3] and in [5] was 21.9 µM in each case.
Turning to `O=C1CC(c2ccccc2)Oc2ccccc21` (stereo not drawn) [FLAVANONE], the EC150 in [3] and in [5] was 380 µM in each case. On Androgen receptor [7], the IC50 turned out to be 20 µM.
On to `O=C1c2ccc(O)cc2OC(c2ccc(O)c(O)c2)C1O` (stereo not drawn), for which the EC150 result in [10] and in assay [11] was “inactive” throughout.
Regarding `O=C1CC(c2ccccc2)Oc2ccc(O)cc21` (stereo not drawn), the EC150 entry in assay [10] and in assay [11] was “inactive” in each case. For the same compound, the IC50 at Androgen receptor [7] was 3.3 µM.
As for `O=c1cc(-c2ccccc2)oc2ccc(Cl)cc12`, the EC150 in [3] and in assay [5] was 12.6 µM throughout.
With `O=c1cc(-c2ccccc2)oc2cc(O)ccc12`, the EC150 in [3] and in assay [5] was 3.1 µM each time.
Consider `O=c1c(O)c(-c2ccccc2)oc2ccccc12` [FLAVONOL], for which the EC150 entry in [10] and in assay [11] was “inactive” each time. Also, the IC50 at Androgen receptor [7] was determined as 23.5 µM.
`O=c1cc(-c2ccccc2)oc2ccccc12` [FLAVONE]: the EC150 in assay [3] and in assay [5] was 26.1 µM in each case. Besides, the IC50 on Androgen receptor [7] and on Androgen receptor [7] (mda-kb2) was 5.9 µM in each case.
As for `O=c1cc(-c2ccccc2)oc2cc(O)c(O)c(O)c12`, the result in assay [12] was Active. Besides, the EC150 in [3] and in [5] was 18.9 µM each time.
For the compound `Cc1ccc2oc(-c3ccccc3)cc(=O)c2c1`, the EC150 in [3] and in assay [5] was 3.6 µM throughout.
As to `O=c1c(O)c(-c2ccccc2)oc2ccc(O)cc12`, the result in [12] was Active. Also, the EC150 in [5] is 1.54 µM.
For `COc1ccc2oc(-c3ccccc3)c(O)c(=O)c2c1`, the EC150 in assay [3] and in assay [5] was 10.3 µM in each case.
For the compound `O=c1cc(-c2ccccc2)oc2ccc(O)cc12` [6-HYDROXYFLAVONE], the EC150 turned out to be 4.1 µM in [12], 7.1 µM in assay [3] and 7.1 µM in assay [5]. In addition, the “AR antagonist activity at 100 uM (active/inactive)” value on Androgen receptor [9] is “Not Active”. Further, the outcome in assay [13] was inactive.
`O=c1c(-c2ccc(O)cc2)coc2cc(O)ccc12` [DAIDZEIN]: the EC150 in assay [3] and in [5] was 10.1 µM throughout. Besides, the “AR antagonist activity at 100 uM (active/inactive)” value on Androgen receptor [9] is on record as “Not Active”.
`COc1ccc2c(c1)C(=O)CC(c1ccccc1)O2` (stereo not drawn) came in with an EC150 in assay [5] of 4.08 µM. Besides, on Androgen receptor [7], the IC50 was 39.5 µM.
For the compound `COc1cc(O)c2c(=O)c(-c3ccc(O)cc3)coc2c1` [PRUNETIN], the EC150 in assay [3] and in assay [5] was 3.2 µM throughout. Also, the “AR antagonist activity at 100 uM (active/inactive)” value on Androgen receptor [9] was “Not Active”.
For `COc1ccc(-c2cc(=O)c3c(O)cc(O)cc3o2)cc1`, the EC150 in [3] and in assay [5] was 2.1 µM throughout.
Consider `COc1ccc2c(c1)OC(c1ccccc1)CC2=O` (stereo not drawn), for which the EC150 result in assay [10] and in [11] was “inactive” throughout.
On to `O=c1c(O)c(-c2ccccc2)oc2cc(O)cc(O)c12`, for which the EC150 in assay [3] and in [5] was 633 µM throughout.
